In publication PMC7380166, “How to Study the Metabolism of New Psychoactive Substances for the Purpose of Toxicological Screenings—A Follow-Up Study Comparing Pooled Human Liver S9, HepaRG Cells, and Zebrafish Larvae” (Frontiers in Chemistry, 2020):

Experiments:
[1] = Incubations with pooled human liver S9 fraction (pHLS9), metabolite identification by LC-HRMS/MS; assay type: in vitro ADME; conditions: 25 μM 4F-MDMB-BINACA, one replicate of n = 2, n.d. = not detected; for Absolute peak area, pHLS9 1 h [25 μM]: 1 h incubation; for Absolute peak area, pHLS9 6 h [25 μM]: 6 h incubation
Description: According to published procedures (Richter et al., [2017b], [2019b]; Caspar et al., [2018b]; Wagmann et al., [2019b],[c]), the final incubation volume per reaction tube was 150 μl, with a final protein concentration of 2 mg/ml. The given concentrations represent final concentrations. A preincubation for 10 min at 37°C with UGT reaction mixture solution B (containing alamethicin, 25 μg/ml), MgCl2 (2.5 mM), NADP^+ (0.6 mM), isocitrate (2.5 mM), isocitrate dehydrogenase (0.8 U/ml), superoxide dismutase (100 U/ml), acetyl coenzyme A (0.1 mM), phosphate buffer (90 mM, pH 7.4), and pHLS9 (2 mg/ml) was done. Afterwards, UGT reaction mixture solution A (containing UDP glucuronic acid, 2.5 mM), PAPS (40 μM), SAM (1.2 mM), dithiothreitol (1 mM), and glutathione (10 mM) were added, as well as 25 μM 4F-MDMB-BINACA to start the reactions. The mixture was incubated for 360 min. Total amount of organic solvent in incubation mixtures was <2% (Chauret et al., [1998]). After 60 min, an aliquot of the reaction mixture (60 μl) was transferred in another reaction tube containing 20 μl of ice-cold acetonitrile to terminate the reactions. The remaining aliquot (90 μl) was incubated for an additional 300 min, and then the reactions were stopped by adding 30 μl of ice-cold acetonitrile. Thereafter, the reaction tubes were cooled at −20°C for 30 min prior to centrifugation at 18,407 × g for 2 min. The supernatants (50 μl) were transferred into autosampler vials, and 1 μl was injected onto the LC-HRMS/MS system. Control samples without pHLS9 and blank samples without substrate were prepared to confirm the absence of non-metabolically formed and interfering compounds, respectively. All incubations were performed in duplicate.
According to a previous study (Richter et al., [2019a]), a Thermo Fisher Scientific (TF, Dreieich, Germany) Dionex UltiMate 3000 Rapid Separation (RS) UHPLC system with a quaternary UltiMate 3000 RS pump and an UltiMate 3000 RS autosampler controlled by the TF Chromeleon software version 6.8 was used. The LC system was coupled to an Orbitrap-based TF Q-Exactive Plus equipped with a heated electrospray ionization II (HESI-II) source. Calibration was done prior to analysis with a Positive Cal Mix (Supelco, Bellefonte, PA, USA) at a flow rate of 3 μl/min using a syringe pump. The conditions of the LC system were as follows: TF Accucore PhenylHexyl column (100 × 2.1 mm, 2.6 μm particle size); gradient elution with 2 mM ammonium formate solution containing 0.1% (v/v) formic acid (eluent A) and 2 mM ammonium formate solution in acetonitrile/methanol (50:50, v/v) containing 0.1% (v/v) formic acid, and 1% (v/v) water (eluent B). […] The following gradient was used: 0–1.0 min hold 1% B, 1–10 min to 99% B, 10–11.5 min hold 99% B, 11.5–13.5 min hold 1% B. The HESI-II source conditions were as follows: ionization mode, positive; heater temperature, 320°C; ion transfer capillary temperature, 320°C; sheath gas, 60 arbitrary units (AU); auxiliary gas, 10 AU; spray voltage, 4.00 kV; and S-lens RF level, 50.0. Mass spectrometry experiments were performed using high-resolution (HR) full scan mode and a targeted MS^2 mode with an inclusion list for each NPS. The inclusion list contained m/z values of metabolites, which were likely to be formed for example hydroxy, oxo, carboxy, dealkyl, demethylenylated, and defluorinated metabolites (phase I) as well as sulfates and glucuronides (phase II) and combinations of them. Full scan settings were as follows: resolution, 35,000; automatic gain control (AGC) target, 3e6; maximum injection time (IT), 120 ms; scan ranges, 3,4-DMA-NBOMe m/z 100–700, ephylone m/z 200–600, 4F-MDMB-BINACA m/z 150–700, 4F-PHP m/z 200–600, and 1P-LSD m/z 250–700. The settings for the targeted MS^2 mode with the respective inclusion lists were as follows: resolution, 17,500; AGC target, 2e5; maximum IT, 250 ms; loop count, 5; isolation window, 1.0 m/z; stepped normalized collision energy (NCE), 17.5, 35, 52.5%; pick others, enabled. […]

zebrafish larvae = experiment: Zebrafish larvae exposure, metabolite identification by LC-HRMS/MS; conditions: larvae 4 dpf, 24 h, larvae extract, one replicate of n = 3, n.d. = not detected; for Absolute peak area, Zebrafish larvae [25 μM]: 25 μM 4F-MDMB-BINACA in medium; for Absolute peak area, Zebrafish larvae [100 µM]: 100 µM parent NPS in medium
HepaRG cells = experiment: Incubations with HepaRG cells, metabolite identification by LC-HRMS/MS; assay type: in vitro ADME, human; conditions: 24 h, cell culture medium, one replicate of n = 3, n.d. = not detected; for Absolute peak area, HepaRG [250 μM]: 250 μM parent NPS; for Absolute peak area, HepaRG [25 μM]: 25 μM parent NPS
[2] = ephylone and metabolites, n = 2, according to literature; ref Wagmann et al., 2019a; cited from earlier work
[3] = human biosamples after intake of ephylone and 4F-PHP; ref Wagmann et al., [2019b]; cited from earlier work

SMILES	Absolute peak area, pHLS9 1 h [25 μM] [1]	Absolute peak area, pHLS9 6 h [25 μM] [1]	Absolute peak area, Zebrafish larvae [25 μM] (zebrafish larvae)	Absolute peak area, HepaRG [250 μM] (HepaRG cells)	Absolute peak area, Zebrafish larvae [100 µM] (zebrafish larvae)	Detection in pHLS9 [25 µM] [2]	Signals with the highest abundance in human plasma and/or urine [3]	Absolute peak area, HepaRG [25 μM] (HepaRG cells)
CC(C)(CO)C(NC(=O)c1nn(CCCCF)c2ccccc12)C(=O)O (centres unmarked) [MB13]	7.30E+03	6.42E+05	4.57E+05	3.13E+07	–	–	–	–
CC1(C)COC(=O)C1NC(=O)c1nn(CCCCO)c2ccccc12 (centres unmarked) [MB5]	–	1.26E+06	9.42E+05	2.40E+05	–	–	–	–
CCCC(NCC)C(=O)c1ccc(O)c(O)c1 (centres unmarked) [ME2]	–	–	–	6.37E+05	4.44E+06	+	highest ephylone-related signals	1.72E+05
CC(C)(C)[C@H](NC(=O)c1nn(CCCCO)c2ccccc12)C(=O)O [MB7]	–	1.91E+06	5.96E+04	1.34E+07	–	–	–	1.25E+06
CCCC(N)C(=O)c1ccc2c(c1)OCO2 (centres unmarked) [ME1]	–	–	–	2.21E+07	4.12E+06	+	highest ephylone-related signals	4.14E+06
CC1(C)COC(=O)C1NC(=O)c1nn(CCCC(=O)O)c2ccccc12 (centres unmarked) [MB9]	–	1.57E+05	2.53E+06	–	–	–	–	–
CC(C)(C)[C@H](NC(=O)c1n[nH]c2ccccc12)C(=O)O [MB3]	9.07E+05	1.27E+06	–	6.92E+06	–	–	–	3.99E+05
COC(=O)[C@@H](NC(=O)c1nn(CCCC(=O)O)c2ccccc12)C(C)(C)C [MB15]	2.16E+06	3.34E+06	2.60E+07	8.00E+06	–	–	–	1.15E+04
